Entries after “also recorded” stand apart in the source; their conditions may differ.

Assay [1] relates to cd41:eGFP+ HSCs emerging from flk1:mCherry+ endothelial cells. Description: Time-lapse confocal imaging of cd41:eGFP+ HSCs emerging from flk1:mCherry+ endothelial cells in transgenic embryos. Type of assay: in vivo, zebrafish. The following applies: 26-42 hpf. As to the method: Mice were purchased Cd45.2 (C57BL6/J) and Cd45.1 (SJL) from The Jackson Laboratory and zebrafish morpholinos from GeneTools. Microangiography was performed by injecting fluorescent-labeled dextran dye in the atrium of zebrafish heart and its passage was recorded using live imaging. Immunostaining of zebrafish heart and mouse AGM were analyzed using an inverted fluorescent microscope. Cardiac tamponade, heart rate, and pulse frequency were analyzed in zebrafish embryos using bright field imaging or time-lapse confocal microscopy. The movement of red blood cells in blood vessels was analyzed as well as the endothelial-to-HSC transition in zebrafish transgenic embryos using time-lapse confocal imaging.
Zebrafish embryos were treated with the following chemical modulators in E3 fish media: 100 uM L-NAME (Fisher Scientific), 50 uM Digitoxigenin (Sigma), 25-50 uM Yoda1 (Cayman Chemical), 1 uM Nanaomycin (Nana; Fisher Scientific), 100 uM Gadolinium chloride (GdCl3; Sigma), 5-10 uM 4α-phorbol 12, 13-didecanaote (4Apdd; Sigma), or GSK205 (10 uM).
cd41:eGFP were crossed with flk1:mCherry zebrafish and flk1:mCherry with lcr:eGFP zebrafish and injected morpholino in their transgenic embryos. […] The relative movement of lcr:eGFP^+ red blood cells was analyzed in the context of flk1:mCherry^+ endothelium. We performed image analysis using Imaris (Bitplane) software.

The next assay deals with human PSCs. Description: FACS analyses of hematopoietic differentiation of human PSCs (embryoid bodies). The assay is classed as cell-based. As for the experimental part:
Embryoid body and hemogenic endothelium differentiation was performed as described in (Sugimura et al. 2017; Ditadi et al. 2015). Briefly, hiPSC colonies were dissociated with 0.05% trypsin for 5 min at 37° C., washed with PBS+2% FBS, and resuspended in StemPro-34 (Invitrogen, 10639-011) supplemented with L-glutamine (2 mM), penicillin/streptomycin ([…]), ascorbic acid (1 mM), human holo-Transferrin ([…], Sigma T0665), monothioglycerol (MTG, 0.4 mM), BMP4 (10 ng/ml), and Y-27632 (10 μM). Five million cells were seeded into 10 cm dishes (Ezsphere, Asahi Glass) for the spheroid formation. On Day 1, bFGF (5 ng/ml) and BMP4 (10 ng/ml) was added to the medium. On Day 2, the media was changed with the StemPro-34 supplemented with SB431542 (6 μM), CHIR99021 (3 μM), bFGF (5 ng/ml), and BMP4 (10 ng/ml). On Day 3, the medium was replaced with StemPro-34 supplemented with VEGF (15 ng/ml) and bFGF (10 ng/ml). On day 6, the medium was changed to StemPro-34 supplemented with bFGF (5 ng/ml), VEGF (15 ng/ml), interleukin (IL)-6 (10 ng/ml), IGF-1 (25 ng/ml), IL-11 (5 ng/ml), SCF (50 ng/ml) and EPO (2IU). The cells were maintained in a 5% CO2, 5% O2 and 95% humidity incubator. All cytokines were purchased from Peprotech.
To isolate the CD34^+ cells, the embryoid bodies (from day 8) were dissociated by 0.05% trypsin, filtered through a 70 μm strainer, CD34^+ cells were isolated by CD34 magnetic bead staining, and subsequently passaged through the LS columns (Miltenyi). A sample from every batch was tested by FACS to validate its purity with the panel. The following antibodies were employed: CD34-PEcy7 (Clone 581; Biolegend), FLK1-PE (CLONE #89106; BD), and 4′,6-diamidino-2-phenylindole (DAPI).
Isolated CD34^+ cells were resuspended in StemPro-34 medium containing Y-27632 (10 μM), TPO (30 ng/ml), IL-3 (10 ng/ml), SCF (50 ng/ml), IL-6 (10 ng/ml), IL-11 (5 ng/ml), IGF-1 (25 ng/ml), VEGF (5 ng/ml), bFGF (5 ng/ml), BMP4 (10 ng/ml), and FLT3 (10 ng/ml) (Ferrel et al 2015). Cells were seeded at a density of 50,000 cells per well onto thin-layer Matrigel-coated 24-well plates. […]

In the case of `Clc1cccc(Cl)c1CSc1nnc(-c2cnccn2)s1` [Yoda1, 2-[5-[[(2,6-Dichlorophenyl)methyl]thio]-1,3,4-thiadiazol-2-yl]-pyrazine], the results for the “HSC formation (endothelial-to-HSC transition)” value in assay [1] (control embryos) and in assay [1] (sih-MO embryos) were “stimulates HSC formation in control embryos” and “rescues HSC formation in sih-MO embryos”, respectively. The “improvement in the number of HSCs produced from hPSCs” value in the assay on human PSCs (FIG. 7C) turned out to be 2 Fold. In addition, in the assay on human PSCs (day 8+7 of hematopoietic differentiation), the “formation of CD34+CD90+ HSCs” value was “enhances the formation of HSCs from hPSC”. The “formation of hCD43negCD235negCD144+CD34+ HECs” value in the assay on human PSCs (embryoid bodies, day 8, control and PIEZO1-/- PSCs) is “enhances the formation of hCD43^negCD235^negCD144^+CD34^+ HE cells in control but not in PIEZO1^−/− PSCs; also recorded: enhances the formation of hCD43^negCD235^negCD144^+CD34^+ HECs in control but not in PIEZO1^−/− PSCs”.

The record behind these values is US20230041065A1, “METHODS FOR GENERATING HEMATOPOIETIC STEM CELLS” (The Brigham and Women`s Hospital, Inc., priority 2019, published 2023).
